Results on two compounds are retold here after patent publication US5403824A, “Methods for the treatment of osteoporosis” (The Procter & Gamble Company, priority 1993, dated 1995).

Square brackets hold non-standard residues; d marks the D form. Peptide text beside a SMILES is read from it. * marks the point of attachment. tBu = CC(C)(C)*

The test system of test [1] is Rat osteoblast-like cells (ROS 17/2.8). Put plainly: [3H]-thymidine incorporation, proliferation of osteoblast-like cells. Type of test: cell-based. Particulars: ROS 17/2.8, 18 hrs incubation, 2 hrs pulse. From the text:
Stimulation of osteoblast-like cell proliferation can be measured according to several art-recognized in vitro models. One such model is described in European Patent Publication No. 384,731, by Rodan et al, published Aug. 29, 1990, which is incorporated herein by reference. (Applicants have modified this method by reducing regent volumes to one-quarter those described and by utilizing Dulbecco's Modified eagle's Medium (DMEM).) In this model, proliferation (division) of, for example, rat osteoblast-like cells (rat osteosarcoma (ROS) cells, rat calvaria cells, etc.) is observed by measuring the amount of radiolabeled thymidine ([^3 H]thymidine) incorporated by these cells. ([^3 H]thymidine is "incorporated" by cellular DNA being synthesized as a result of cell proliferation.) The greater the level of [^3 H]thymidine measured, the greater the amount of proliferation of the osteoblast cells.
More specifically, a test sample (comprised of a test compound and osteoblast-like cells) and a control sample (comprised of only osteoblast-like cells) are pulsed with [^3 H]thymidine. The amount of [^3 H]thymidine incorporated by the cells is measured using a direct beta counter.
Rat osteoblast-like cells (ROS 17/2.8) are plated at 4×10^3 cells/well in a 96-well plate in Dulbecco's Modified eagle's Medium supplemented with 2% (v/v) Fetal Bovine Serum, and incubated for 6 hrs. Control (serum-free) medium and test medium (test sample and serum-free medium) are then added to the cells and this combination is incubated for 18 hrs. The cells are then pulsed with [^3 H]-thymidine (1 μCi/well) for 2 hrs. The medium is then removed, the cells are harvested onto glass fibre filters and the amount of [^3 H]-thymidine (counts per minute per well) incorporated into DNA is then determined using a direct beta counter. Values for control groups are then compared to values for treated groups.
The compound H-Tyr-D-Ala-Gly-Phe-D-Leu-OH ("DADLE") is screened to determine whether it stimulates proliferation of osteoblast-like cells. […] The medium is then removed, the cells are harvested onto glass fibre filters, and the amount of ^3 H-thymidine (counts per minute per well) incorporated into DNA is determined using a direct beta counter. […]
The compound Tyr-D-Cys(S-t-butylthioether)-Gly-Phe-Leu-Thr(O-t-butylether) ("BUBUC") is screened to determine whether it stimulates proliferation of osteoblast-like cells. […] The medium is then removed, the cells are harvested onto glass fibre filters, and the amount of ^3 H-thymidine (counts per minute per well) incorporated into DNA is determined using a direct beta counter. […]
(Incorporation of labelled thymidine or its analogues reports DNA synthesis.)

Test [2] has as its target T1, delta opioid receptor (Cavia porcellus, UniProt A0A286XTF2).
T1 construct: A preferred source of delta opioid receptors is guinea pig brain; from tissue; host or cells: guinea pig brain
Description: inhibition of [3H]DPDPE binding, method of Goldstein et al. The conditions noted are these: radioligand [3H]DPDPE. On the set-up: species or system guinea pig. The source says: Affinity for delta opioid receptors can be measured by any of several art-recognized in vitro models. One such model is described by Goldstein et al., and is discussed above. According to this model, a test compound is screened for its ability to inhibit binding of a delta-selective radiolabeled ligand ("delta-selective radiolabeled ligand" refers to a radiolabeled compound that is known to have selective affinity to delta opioid receptors) to delta opioid receptor binding sites. More specifically, this in vitro model compares test samples (comprising a delta-selective radiolabeled ligand ("hot ligand"); the non-radiolabeled equivalent to the "hot ligand" ("cold ligand"); test compound at varying concentrations in each test sample; and delta opiate receptor material) and a control sample (comprising hot ligand; cold ligand; and delta opiate receptor material).
Following the protocol set forth by Goldstein et al., the samples are assayed for relative radioactivity.
In assessing a compound's in vitro affinity for delta opioid receptors according to the method described by Goldstein et al., the delta-selectiveradiolabeled ligand ("hot ligand") is preferrably [^3 H]Tyr-D-Pen-Gly-Phe-D-Pen-OH ("[^3 H]-DPDPE"). The preferred "cold ligand" is therefore H-Tyr-D-Pen-Gly-Phe-D-Pen-OH ("cold DPDPE" or "DPDPE"). A preferred source of delta opioid receptors is guinea pig brain. […]

In test [3] the test system is human subject with postmenopausal osteoporosis or low bone mass. Description: treatment of human subject with osteoporosis, vertebral density by dual-energy photon absorptiometry. Type of test: in vivo. How it is done: A human subject weighing about 60 kg (132 lbs), suffering from postmenopausal osteoporosis, is treated by a method of this invention. Specifically, for two years, the enkephalin-degrading enzyme inhibitor DL-3-mercapto-2-benzylpropanoylglycine is administered orally, in a cyclical regimen, where each cycle consists of an active period of 28 days during which a tablet containing 160 mg of said inhibitor is administered each day, followed by a non-active period of 28 days during which the subject receives a daily supplement of calcium (1,000 mg/day), with repeat of cycle.
A human subject weighing about 60 kg (132 lbs), suffering from postmenopausal osteoporosis, is treated by a method of this invention. Specifically, for two years, the compound H-Tyr-D-Ala-Gly-Phe-D-Leu-OH ("DADLE") is administered to the subject, in a cyclical regimen, where each cycle consists of an active period of 28 days during which a solution containing 30 mg of DADLE is administered intravenously every day, followed by a non-active period of 28 days during which the patient receives a daily supplement of calcium (1,000 mg/day), with repeat of cycle.
A human subject weighing about 60 kg (132 lbs), suffering from postmenopausal osteoporosis, is treated by a method of this invention. Specifically, for two years, an enkephalin of the formula Tyr-D-Cys(S-t-butylthioether)-Gly-Phe-Leu-Thr(O-t-butylether) ("BUBUC") is administered to the subject, in a cyclical regimen, where each cycle consists of an active period of 28 days during which a solution containing 30 mg of BUBUC is intravenously administered each day, followed by a non-active period of 28 days during which the patient receives a daily supplement of calcium (1,000 mg/day), with repeat of cycle.
A human subject weighing about 60 kg (132 lbs), suffering from postmenopausal osteoporosis, is treated by a method of this invention. Specifically, for two years, the enkephalin secretagogue Tyr-Arg^1, is administered to the subject, in a cyclical regimen, where each cycle consists of an active period of 28 days during which a solution containing 30 mg of Tyr-Arg is intravenously administered each day, followed by a non-active period of 28 days during which the subject receives a daily supplement of calcium (1,000 mg/day), with repeat of cycle. […]
A human subject weighing about 60 kg (132 lbs), suffering from postmenopausal osteoporosis, is treated by a method of this invention. Specifically, each day for five years, the subject is administered 3 tablets, comprised as follows.
A human subject weighing about 60 kg (132 lbs) is evaluated approximately four years after spontaneous menopause, and is found to have low bone mass. The subject is then treated by a method of this invention to treat osteoporosis. Specifically, once each month for five years, the subject is administered, via intravenous injection, 5 ml of a solution comprised as follows.

Test [4] has as its system osteoblast-like cells. Put plainly: enkephalin secretion from osteoblast-like cells, RIA of immunoreactive enkephalin. Type of test: cell-based. The conditions noted are these: 48 hrs incubation. How it is done: In vitro release of enkephalin can be determined using any of several art-recognized in vitro models. One such model is described by Rosen et al., "Regulated Expression of Proenkephalin A in Normal Lymphocytes", 143 J. Immunol. 3703-07 (1989), which is incorporated herein by reference. In this model, "target cells" (preferably bone-derived cells, such as human osteoblast-like cells, rat calvaria cells, rat osteosarcoma cells, etc.) are incubated in tissue culture medium in the presence (test sample) and absence (control sample) of a test agent.
Osteoblast-like cells are incubated in tissue culture medium in the presence (test samples) and absence of the compound Tyr-Arg for 48 hrs. Peptides are extracted from packed cells by homogenization in 10 volumes of 0.2M HCl, heated to 100° C. for 3 min. and centrifuged at 15,000×g for 30 min. at 4° C. An aliquot of the resulting supernatant is purified on a C18 octadecyl Ampere minicolumn using a non-polar extraction procedure as recommended by the manufacturer of the columns. Another portion of the supernatant is lyophilized and reconstituted in 1.0 ml of 50 mM Tris-HCl (pH 8.0), 2 mM CaCl2 containing 20 µg/ml trypsin L-p-tosylamino-2-phenylethyl chloromethyl ketone. After trypsin digestion (2 hr at […]), samples are heated to 100° C. for 20 min., cooled and then treated with carboxypeptidaseB (0.2 μg/ml) for 1 hr. at 37° C. […]

Where [5] appears, read: 30 mg intravenously daily (substitutes at comparable levels), 28 days active / 28 days calcium, two years.

T1 sequence (A0A286XTF2 1-366): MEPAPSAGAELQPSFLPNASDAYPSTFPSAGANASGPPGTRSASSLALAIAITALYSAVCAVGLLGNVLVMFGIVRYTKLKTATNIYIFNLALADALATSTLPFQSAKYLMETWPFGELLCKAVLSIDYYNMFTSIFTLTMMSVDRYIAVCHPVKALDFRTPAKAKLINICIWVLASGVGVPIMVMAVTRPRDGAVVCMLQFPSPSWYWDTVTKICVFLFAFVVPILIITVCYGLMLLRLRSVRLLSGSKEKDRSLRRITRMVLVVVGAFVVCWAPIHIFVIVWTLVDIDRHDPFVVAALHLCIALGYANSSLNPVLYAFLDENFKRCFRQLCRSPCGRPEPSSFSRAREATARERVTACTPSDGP

With `CC(C)C[C@H](NC(=O)[C@H](Cc1ccccc1)NC(=O)CNC(=O)[C@@H](CSC(C)(C)C)NC(=O)[C@@H](N)Cc1ccc(O)cc1)C(=O)N[C@H](C(=O)O)[C@@H](C)OC(C)(C)C` [BUBUC, Tyr-D-Cys(S-t-butylthioether)-Gly-Phe-Leu-Thr(O-t-butylether)] (H-Y[dC](tBu)GFLT(tBu)-OH), in test [1], the “[3H]-thymidine incorporation (proliferation) vs control” value is on record as “significantly stimulated proliferation of the osteoblast-like cells”. In addition, the “in vitro delta opioid receptor affinity (IC50 ≤1000 times the IC50 of non-radiolabeled DPDPE)” value in test [2] was “significant in vitro delta opioid receptor affinity”. Further, the “density of vertebrae / bone mass” value in test [3] (setting [5]) was “an increase in bone mass”; in test [3] (Example 8: 5 ml of 30.0 mg/ml solution i.v. once each month for five years), “no significant loss in bone mass has occurred”.

Consider `N=C(N)NCCC[C@H](NC(=O)[C@@H](N)Cc1ccc(O)cc1)C(=O)O` [Tyr-Arg], for which the “[3H]-thymidine incorporation (proliferation) vs control” value in test [1] is “significantly stimulated proliferation of the osteoblast-like cells”. For the same compound, in test [3] (setting [5]), the “density of vertebrae / bone mass” value is “an increase in bone mass”. Moreover, the “immunoreactive enkephalin, enkephalin secretion vs control” value in test [4] is given as “stimulates enkephalin secretion by osteoblast-like cells”.
